What all share (format): biochemical
Assay [1] has as its target CDK4/Cyclin D1 (Homo sapiens, UniProt P11802). Nature of the assay: CDK4/CyclinD1 kinase assay (Nanosyn, Caliper microfluidic). The note with it: 12-point dose-response, ATP at Km (200 μM), 1 nM enzyme, 10 hr. On the procedure:
(§1) Selected compounds disclosed herein were tested in CDK4/cyclinD1, CDK2/CycA and CDK2/cyclinE kinase assays by Nanosyn (Santa Clara, Calif.) to determine their inhibitory effect on these CDKs. The assays were performed using microfluidic kinase detection technology (Caliper Assay Platform). The compounds were tested in 12-point dose-response format in singlicate at Km for ATP. Phosphoacceptor substrate peptide concentration used was 1 μM for all assays and Staurosporine was used as the reference compound for all assays. Specifics of each assay are as described below:
CDK4/CyclinD1: Enzyme concentration: 1 nM; ATP concentration: 200 μM; Incubation time: 10 hr.

Assay [2] concerns the target CDK2/Cyclin A (Homo sapiens, UniProt P24941). Nature of the assay: CDK2/CyclinA kinase assay (Nanosyn, Caliper microfluidic). The settings on record: 12-point dose-response, ATP at Km (50 μM), 0.2 nM enzyme, 3 hr. How it is done: as §1
CDK2/CyclinA: Enzyme concentration: 0.2 nM; ATP concentration: 50 μM; Incubation time: 3 hr.

In assay [3] the target is CDK2/Cyclin E (Homo sapiens, UniProt P24941). The experiment in a line: CDK2/CyclinE kinase assay (Nanosyn, Caliper microfluidic). The note with it: 12-point dose-response, ATP at Km (100 μM), 0.28 nM enzyme, 1 hr. On the procedure:
as §1
CDK2/CyclinE: Enzyme concentration: 0.28 nM; ATP concentration: 100 μM; Incubation time: 1 hr.

The target in assay [4] is CDK9/Cyclin T (Homo sapiens, UniProt P50750). Nature of the assay: CDK9/Cyclin T kinase assay.
CDK9/Cyclin T, sequence (P50750 whole entry): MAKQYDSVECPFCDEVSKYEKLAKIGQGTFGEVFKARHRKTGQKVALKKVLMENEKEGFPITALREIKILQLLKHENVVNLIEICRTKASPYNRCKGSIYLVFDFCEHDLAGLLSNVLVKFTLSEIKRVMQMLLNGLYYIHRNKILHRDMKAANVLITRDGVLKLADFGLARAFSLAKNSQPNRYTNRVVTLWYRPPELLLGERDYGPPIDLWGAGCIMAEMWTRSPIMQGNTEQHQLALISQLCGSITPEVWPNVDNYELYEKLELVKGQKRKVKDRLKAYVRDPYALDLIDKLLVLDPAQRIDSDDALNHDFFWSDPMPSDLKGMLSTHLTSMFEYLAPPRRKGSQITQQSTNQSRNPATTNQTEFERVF
CDK9/Cyclin T, sequence (O60563 whole entry partner): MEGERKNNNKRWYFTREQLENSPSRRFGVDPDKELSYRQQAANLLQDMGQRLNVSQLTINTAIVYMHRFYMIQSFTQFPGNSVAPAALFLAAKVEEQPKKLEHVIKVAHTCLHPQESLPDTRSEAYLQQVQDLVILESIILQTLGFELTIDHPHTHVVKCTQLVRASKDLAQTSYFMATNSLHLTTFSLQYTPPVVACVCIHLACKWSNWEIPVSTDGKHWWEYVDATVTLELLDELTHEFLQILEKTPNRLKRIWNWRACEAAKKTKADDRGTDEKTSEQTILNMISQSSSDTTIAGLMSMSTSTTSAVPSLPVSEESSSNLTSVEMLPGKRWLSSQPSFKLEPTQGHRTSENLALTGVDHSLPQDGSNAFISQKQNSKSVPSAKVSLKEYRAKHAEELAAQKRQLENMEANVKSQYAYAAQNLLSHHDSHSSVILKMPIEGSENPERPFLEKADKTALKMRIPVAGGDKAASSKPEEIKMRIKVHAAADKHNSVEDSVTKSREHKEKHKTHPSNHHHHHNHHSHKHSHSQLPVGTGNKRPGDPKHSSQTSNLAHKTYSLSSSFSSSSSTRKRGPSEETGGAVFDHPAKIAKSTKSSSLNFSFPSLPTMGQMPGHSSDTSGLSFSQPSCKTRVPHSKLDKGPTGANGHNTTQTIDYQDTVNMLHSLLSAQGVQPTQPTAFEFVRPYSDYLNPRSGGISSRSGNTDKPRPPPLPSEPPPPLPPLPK
In assay [5] the target is CDK6/Cyclin D3 (Homo sapiens, UniProt Q00534). Nature of the assay: CDK6/Cyclin D3 kinase assay. On the procedure: [The procedure below names another target; the source lists this target under the same test.] Selected compounds disclosed herein were tested in CDK4/cyclinD1, CDK2/CycA and CDK2/cyclinE kinase assays by Nanosyn (Santa Clara, Calif.) to determine their inhibitory effect on these CDKs. The assays were performed using microfluidic kinase detection technology (Caliper Assay Platform). The compounds were tested in 12-point dose-response format in singlicate at Km for ATP. Phosphoacceptor substrate peptide concentration used was 1 μM for all assays and Staurosporine was used as the reference compound for all assays.
CDK6/Cyclin D3, sequence (Q00534 whole entry): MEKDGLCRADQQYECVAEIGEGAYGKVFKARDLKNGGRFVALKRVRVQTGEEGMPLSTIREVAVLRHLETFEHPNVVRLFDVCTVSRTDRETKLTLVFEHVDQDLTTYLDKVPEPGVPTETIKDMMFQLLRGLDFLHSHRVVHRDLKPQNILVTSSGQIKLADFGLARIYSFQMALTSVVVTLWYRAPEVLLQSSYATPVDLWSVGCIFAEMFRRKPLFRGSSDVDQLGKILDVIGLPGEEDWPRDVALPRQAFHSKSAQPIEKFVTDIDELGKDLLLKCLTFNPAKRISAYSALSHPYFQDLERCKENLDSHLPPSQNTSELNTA
CDK6/Cyclin D3, sequence (P30281 whole entry partner): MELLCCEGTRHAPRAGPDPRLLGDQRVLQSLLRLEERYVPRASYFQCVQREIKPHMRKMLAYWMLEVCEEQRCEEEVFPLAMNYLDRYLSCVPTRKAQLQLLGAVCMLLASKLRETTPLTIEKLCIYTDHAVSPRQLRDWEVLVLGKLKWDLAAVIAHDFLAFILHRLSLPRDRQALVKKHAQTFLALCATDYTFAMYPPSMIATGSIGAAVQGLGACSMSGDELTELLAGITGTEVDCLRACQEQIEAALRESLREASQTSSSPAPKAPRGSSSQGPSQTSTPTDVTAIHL

Molecules are shown by their SMILES. A value given as a limit tells only on which side of the number the result lay.

CDK4/Cyclin D1, sequence (P11802 whole entry): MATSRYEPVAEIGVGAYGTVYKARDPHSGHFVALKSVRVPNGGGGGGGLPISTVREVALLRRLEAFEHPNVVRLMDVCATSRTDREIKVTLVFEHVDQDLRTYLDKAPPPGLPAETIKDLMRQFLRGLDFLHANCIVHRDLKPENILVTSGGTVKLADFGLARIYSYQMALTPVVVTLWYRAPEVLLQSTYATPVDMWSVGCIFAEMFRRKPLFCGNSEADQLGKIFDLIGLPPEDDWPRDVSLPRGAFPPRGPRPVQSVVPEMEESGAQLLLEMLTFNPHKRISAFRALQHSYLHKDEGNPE
CDK4/Cyclin D1, sequence (P24385 whole entry partner): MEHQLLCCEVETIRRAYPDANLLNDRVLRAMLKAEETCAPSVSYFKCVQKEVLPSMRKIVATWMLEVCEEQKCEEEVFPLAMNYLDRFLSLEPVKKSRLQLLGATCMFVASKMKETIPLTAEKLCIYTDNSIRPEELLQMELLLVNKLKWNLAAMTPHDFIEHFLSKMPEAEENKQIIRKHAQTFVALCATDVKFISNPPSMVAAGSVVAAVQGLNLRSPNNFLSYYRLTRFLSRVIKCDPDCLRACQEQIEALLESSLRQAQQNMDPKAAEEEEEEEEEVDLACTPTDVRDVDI

As for `CN1CCN(c2ccc(Nc3ncc4cc5n(c4n3)C3(CCCCC3)CN=C5)nc2)CC1` [Compound 1, N-(5-(4-methylpiperazin-1-yl)pyridin-2-yl)-8′H-spiro[cyclohexane-1,9′-pyrazino[1′,2′:1,5]pyrrolo[2,3-d]pyrimidin]-2′-amine], the IC50 is 1 nM in assay [1]; 187 nM in assay [2]; 61 nM in assay [3]; 95 nM in assay [4]; 3 nM in assay [5].
The corresponding values for `CN1CCN(c2ccc(Nc3ncc4cc5n(c4n3)C3(CCCCC3)CNC5)nc2)CC1` [Compound 2, N-(5-(4-methylpiperazin-1-yl)pyridin-2-yl)-7′,8′-dihydro-6′H-spiro[cyclohexane-1,9′-pyrazino[1′,2′: 1,5]pyrrolo[2,3-d]pyrimidin]-2′-amine] are 29 nM, 12900 nM, 5750 nM, 4470 nM and 90 nM.
The corresponding values for `CCCNC1=NCC2(CCCCC2)n2c1cc1cnc(Nc3ccc(N4CCN(C)CC4)cn3)nc12` [Compound 3, N2′-(5-(4-methylpiperazin-1-yl)pyridin-2-yl)-N6′-propyl-8′H-spiro[cyclohexane-1,9′-pyrazino[1′,2′: 1,5]pyrrolo[2,3-d]pyrimidine]-2′,6′-diamine] are 740 nM, more than 100000 nM, more than 100000 nM, 32500 nM and 1260 nM.
`CN1CCN(c2ccc(Nc3ncc4cc5n(c4n3)C3(CCCCC3)CN=C5Nc3ccccc3)nc2)CC1` [Compound 4, N2′-(5-(4-methylpiperazin-1-yl)pyridin-2-yl)-N6′-phenyl-8′H-spiro[cyclohexane-1,9′-pyrazino[1′,2′: 1,5]pyrrolo[2,3-d]pyrimidine]-2′,6′-diamine]: the concentration for half-maximal inhibition (IC50) in assay [1] was 27 nM; in assay [2] it was 24600 nM; in assay [3], 54900 nM; in assay [4], 1570 nM; in assay [5] it was 61 nM.
Take `CN1CCN(c2ccc(Nc3ncc4cc5n(c4n3)C3(CCCCC3)CN=C5NCc3ccccc3)nc2)CC1` [Compound 5, N6′-benzyl-N2′-(5-(4-methylpiperazin-1-yl)pyridin-2-yl)-8′H-spiro[cyclohexane-1,9′-pyrazino[1′,2′: 1,5]pyrrolo[2,3-d]pyrimidine]-2′,6′-diamine]: the IC50 in assay [1] was 160 nM; in assay [2], 70700 nM; in assay [3], more than 100000 nM; in assay [4], 11200 nM; in assay [5] it was 390 nM.
Regarding `CC1=NCC2(CCCCC2)n2c1cc1cnc(Nc3ccc(N4CCN(C)CC4)cn3)nc12` [Compound 9, 6′-methyl-N-(5-(4-methylpiperazin-1-yl)pyridin-2-yl)-8′H-spiro[cyclohexane-1,9′-pyrazino[1′,2′: 1,5]pyrrolo[2,3-d]pyrimidin]-2′-amine], the IC50 in assay [1] came out at 96 nM; in assay [2] it was 3700 nM; in assay [3], 3000 nM; in assay [4], 2500 nM; in assay [5], 24 nM.
With `CN1CCN(c2ccc(Nc3ncc4cc5n(c4n3)C3(CCOCC3)CN=C5)nc2)CC1` [Compound 10, N-(5-(4-methylpiperazin-1-yl)pyridin-2-yl)-2,3,5,6-tetrahydro-8′H-spiro[pyran-4,9′-pyrazino[1′,2′: 1,5]pyrrolo[2,3-d]pyrimidin]-2′-amine], the IC50 in assay [1] turned out to be 40 nM; in assay [2], 7000 nM; in assay [3], 5000 nM; in assay [4] it was 2000 nM; in assay [5], 70 nM.
As for `CO[C@H]1CC[C@]2(CC1)CN=Cc1cc3cnc(Nc4ccc(N5CCN(C)CC5)cn4)nc3n12` [Compound 12, (1R,4R)-4-methoxy-N-(5-(4-methylpiperazin-1-yl)pyridin-2-yl)-8′H-spiro[cyclohexane-1,9′-pyrazino[1′,2′:1,5]pyrrolo[2,3-d]pyrimidin]-2′-amine], the IC50 is 40 nM in assay [1]; 10000 nM in assay [2]; 7000 nM in assay [3]; 1000 nM in assay [4]; 100 nM in assay [5].
Taken in the same sequence, the figures for `CO[C@H]1CC[C@@]2(CC1)CN=Cc1cc3cnc(Nc4ccc(N5CCN(C)CC5)cn4)nc3n12` [Compound 13, (1S,4S)-4-methoxy-N-(5-(4-methylpiperazin-1-yl)pyridin-2-yl)-8′H-spiro[cyclohexane-1,9′-pyrazino[1′,2′:1,5]pyrrolo[2,3-d]pyrimidin]-2′-amine] were 9 nM, 4000 nM, 3000 nM, 900 nM and 20 nM.

(Values after patent publication US10618905B2, “Pyrimidine-based compounds for the treatment of cancer” (G1 Therapeutics, Inc., priority 2016, dated 2020).)
